Structures are written as SMILES.

Experiment [1] concerns CCl4 induced hepatic injury in rats. The experiment can be described thus: Hepatoprotective activity (in vivo) against CCl4 induced hepatic injury in rats. From the text: 033 and 033 (2) reduced the elevated levels of serum OPT, GOT, ALP, bilirubin, TG and liver homogenate lipid peroxidation and increased the GSH level. […] The same with silymarin was: 58.44, 51:63, 52,26,57.50,41.30,62.05 & 60.15% respectively. (Table-1). [table]

In experiment [2] the test system is GalN induced hepatic injury in rats. The experiment can be described thus: Hepatoprotective activity (in vivo) against GalN (galactosamine) induced hepatic injury in rats. From the text:
On treatment of experimental animals with galactosamine (GaIN) induced hepatic damage the hepatoprotective activity observed with 033 and 033 (2) was 59.58 & 50.75, 56.62 & 43.64, 54.28 & 50.11, 57.71 & 57.57, 57.89 & 44.76 percent in serum GPT, GOT, Bilirubin, ALP, and TG respectively and 67.51 & 38.65, 66-56 & 48.10 percent in liver homogenate lipid peroxidation (LP) and GSH respectively. The same with silymarin was 57.38, 55.40, 60.00. 53.54,46.17, 69.59, 67.18 percent respectively (Table-2). Advantages of the present invention over currently used plant based hepatoprotectives: • 1. […] Silymarin is a mixture of three constituents whose relative proportion varies from batch to batch while negundoside is a pure compound. [table]

Setting [3] is: rats, CCl4 1 ml/kg p.o., fed p.o. at 48 h, 24 h, 2 h before and 6 h after, 033 400 mg/kg, 033 (2) and silymarin 50 mg/kg, n=6.
The mark [4] stands for this setting: rats, GalN 300 mg/kg s.c., fed p.o. at 48 h, 24 h, 2 h before and 6 h after, 033 400 mg/kg, 033 (2) and silymarin 50 mg/kg, n=6.

For the molecule `C[C@]1(O)CC[C@@H]2C(C(=O)O)=CO[C@@H](O[C@@H]3O[C@H](CO)[C@@H](O)[C@H](O)[C@H]3OC(=O)c3ccc(O)cc3)[C@@H]21` [033 (2), 2′-p-hydroxybenzoylmussaenosidic acid], in experiment [1] (experimentally induced hepatic damage in rodents, CCl4 as hepatotoxin), the “Hepatoprotective activity in words” value is reported as “marked hepatoprotective activity”. In experiment [1] (setting [3]), the “Hepatic Glutathione (GSH, liver homogenate): mean percent hepatoprotective activity” value is recorded as 45.56%; the “Hepatic Lipid peroxidation (liver homogenate): mean percent hepatoprotective activity” value stood at 45.85%; the “Serum ALP: mean percent hepatoprotective activity” value was 53.95%; the “Serum Bilirubin (mg %): mean percent hepatoprotective activity” value was found to be 66.66%. In experiment [1] (setting [3]), the “Serum GOT (Units): mean percent hepatoprotective activity” value is 58.05%, the “Serum OPT (Units): mean percent hepatoprotective activity (reduction of elevated GPT)” value worked out at 60.34% and the “Serum Triglycerides (mg %): mean percent hepatoprotective activity” value worked out at 44.19%. In addition, the “Hepatoprotective activity in words” value in experiment [2] (experimentally induced hepatic damage with galactosamine (GalN) in rats) is “marked hepatoprotective activity”. In addition, in experiment [2] (setting [4]), the “Hepatic Glutathione (GSH, liver homogenate): mean percent hepatoprotective activity” value worked out at 48.10%; the “Hepatic Lipid peroxidation (LP, liver homogenate): mean percent hepatoprotective activity” value is reported as 38.65%; the “Serum ALP: mean percent hepatoprotective activity” value is listed as 57.57%; the “Serum Bilirubin (mg %): mean percent hepatoprotective activity” value is 50.11%. Also, in experiment [2] (setting [4]), the “Serum GOT (Units): mean percent hepatoprotective activity” value is on record as 43.64%, the “Serum GPT (Units): mean percent hepatoprotective activity (GPT)” value is 50.75% and the “Serum Triglycerides (mg %): mean percent hepatoprotective activity” value stood at 44.76%.

For the origin of these results see patent US7259148B2, “Hepatoprotective activity of 2′-p-hydroxybenzoylmussaenosidic acid” (Council of Scientific & Industrial Research, priority 2003, dated 2007).
